Laboratory results taken from publication PMC8744458 (Beilstein Journal of Organic Chemistry, 2022).
“And” between values parts separate entries of the source, which are not always exact repeats. Identical values can stand only once. “Also recorded” adds a separate entry of the source. Positions of bridges follow the written chain, without caps; N, C: chain ends. Non-standard residues stand in square brackets, D forms with d. Residues, ends and D or L forms follow the SMILES beside them. No end group written: not given here. *: point of attachment. FITC = O=C1OC2(c3ccc(O)cc3Oc3cc(O)ccc32)c2ccc(NC(=S)*)cc21; S5 = C=CCCC[C@](C)(N)C(=O)O

B1: fStAx-3 (FITC-labelled RCM-stapled axin CBD peptide) 467-481 (peptide)
chain: {FITC}-PESILDEHVQRVLRT
modifications: staple (positions not given here); not fully specified (residues 5, 9, bridges); also: all-hydrocarbon staple at 471/475 (positions 5, 9), stapling residues not named
B2: aAxWt (axin CBD peptide) 467-481 (peptide)
chain: PESILDEHVQRVLRT

What was measured:
[1] = not given; remark: listed apart in the source
β-catenin [2] = molecular target: T1, β-catenin (Homo sapiens, UniProt P35222); test: Competitive fluorescence polarisation assay; assay type: binding; conditions: unlabelled peptide titrated against tracer peptide fStAx-3 (10 nM final), β-catenin 3 µM final; FP buffer 1× PBS with 0.05% Tween20, pH 7.4; 4 °C, 1 h; biological duplicate and technical triplicate
T1 construct: expression and purification of full-length β-catenin; His tag with TEV site (inferred from the pET28a-TEV vector name and Ni-NTA purification); host or cells: E. coli BL21(DE3)
T1 sequence (P35222 1-781): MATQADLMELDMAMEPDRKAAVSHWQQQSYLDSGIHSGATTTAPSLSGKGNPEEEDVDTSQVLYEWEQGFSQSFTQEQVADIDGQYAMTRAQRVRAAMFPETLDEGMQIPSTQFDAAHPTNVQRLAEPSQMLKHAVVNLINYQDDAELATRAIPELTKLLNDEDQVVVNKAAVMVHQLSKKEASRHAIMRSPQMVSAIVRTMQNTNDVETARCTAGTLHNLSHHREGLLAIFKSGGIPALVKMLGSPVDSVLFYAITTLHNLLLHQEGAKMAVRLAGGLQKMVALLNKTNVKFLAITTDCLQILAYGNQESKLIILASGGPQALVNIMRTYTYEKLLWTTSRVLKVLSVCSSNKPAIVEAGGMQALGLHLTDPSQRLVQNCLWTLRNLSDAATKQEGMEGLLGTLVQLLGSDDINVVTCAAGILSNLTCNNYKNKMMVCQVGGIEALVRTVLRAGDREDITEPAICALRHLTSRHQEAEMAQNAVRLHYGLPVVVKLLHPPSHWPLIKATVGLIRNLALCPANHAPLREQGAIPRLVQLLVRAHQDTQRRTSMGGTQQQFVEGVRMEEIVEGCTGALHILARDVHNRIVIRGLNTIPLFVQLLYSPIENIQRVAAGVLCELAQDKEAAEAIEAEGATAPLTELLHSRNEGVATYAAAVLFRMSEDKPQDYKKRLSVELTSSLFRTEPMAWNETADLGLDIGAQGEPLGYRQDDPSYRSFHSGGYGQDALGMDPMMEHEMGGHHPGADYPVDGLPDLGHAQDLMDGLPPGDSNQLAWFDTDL
Procedure: Figure S6: Direct titration curve of fluorescence polarisation assay of FITC-labelled AxWt (fAxWt) and FITC-labelled RCM-stapled peptide StAx-3 (fStAx-3). Dissociation constants were determined to be Kd […]
competitive fluorescence polarisation assay (see below).
Competitive fluorescence polarisation assay
A stock solution of the FITC-labelled peptide in DMSO (20 µM) was diluted to 40 nM in FP buffer (1× PBS with 0.05% Tween20, pH 7.4). A β-Catenin stock solution with a concentration of 6 µM was prepared in FP buffer. Stock solutions of non-labelled peptides (1 mM) in DMSO were serially diluted (2.5-fold) in FP buffer. […]
Fluorescence polarisation was measured using a Tecan Spark 10M with λex = 485/20 nm and […]. Each sample was measured as biological duplicate and technical triplicate. […]
The equation used for Kd determination of unlabeled peptides is shown below with r as anisotropy, r0 as anisotropy of the free peptide, rb as anisotropy of the β-Catenin:FITC-labelled tracer peptide, Kd2 as dissociation constant between the non-labelled ligand and the protein, [L]t as total non-labelled ligand concentration and [L]st as total FITC-labelled peptide concentration. Kd1 is the apparent Kd that was determined in direct fluorescence polari sation assays for the labelled-tracer peptide. […]
fluorescence polarisation assay). […]

[3] = not given; remark: listed apart in the source
proteinase K = proteinase K (Parengyodontium album, UniProt P06873); test: Proteinase K stability assay; assay type: in vitro ADME; conditions: 0.5 mM peptide, 2.5 µg mL−1 proteinase K, Na2HPO4 buffer 100 mM pH 7.4 (with DMSO from stock), 25 °C, 120 min; samples at 0, 10, 20, 30, 60, 120 min; LC-MS at 280 nm
Procedure: Proteinase K stability assays
The assay was performed using a modified protocol.[11] A 10 mM peptide stock solution was prepared in a mixture of Na2HPO4 buffer (100 mM, pH 7.4) and DMSO (9:1). The peptide stock solution (25 µL) was diluted with more Na 2HPO4 buffer (450 µL) and thoroughly mixed.
Proteolytic digestion was started by addition of a solution of Proteinase K ( 50 µg mL−1, activity 36.9 mAnsonU mg−1) in Na2HPO4 buffer (25 µL) and incubated for 120 min at 25 °C (resulting assay concentrations 0.5 mM peptide and 2.5 µg mL−1 proteinase K). For LC-MS analysis, a 50 µL sample was diluted with 50 µL of methanol containing 0.1% TFA (v/v) and spun down at […]
Reaction monitoring via LC-MS
Figure S8: Reaction monitoring via LC-MS at λ = 280 nm. A) Linear Peptide P6, samples were taken […]
at t = 0, 10, 20, 30, 60 and 120 min. […]
fragment Ac-ENPEWILDKHVQ-OH eluting at exactly the same retention time than peptide P6 (see mass spectra below at reaction times 0 and 120 min). For fragment assignments, see mass spectra below. B) SMC stapled peptide P5, samples were taken at t = 0, 10, 20, 30, 60 and 120 min. Compared to linear […]

[4] = CD spectroscopy, calculated content of α-helix; assay type: physicochemical; conditions: c = 100 µM in water, 20 °C, from MRE at 222 nm
Procedure: Figure 1 Analysis of the secondary structure by circular dichroism: CD spectra of both isomers of stapled peptide P5 (P5.1 and P5.2) and linear references (aAxWt, P6) (c = 100 µM) at 20 °C in water.
Table S1: Calculated contents of α-helix.
Peptide θ222 [mdeg] [θ]222 [deg cm2 dmol-1] a) MRE [deg cm2 dmol-1] b) α-Helix content [%]
a) [θ] = θ / (c * 10 * l) with c = 10-4 mol/L, l = 0.1 cm; b) MRE = [θ] / n; c) in brackets literature values for
FITC-labelled analogues, ref: Grossmann, T. N.; Yeh, J. T.-H.; Bowman, B. R.; Chu, Q.; Moellering, R.
For TFE titration experiments, peptide solutions in a mixture of TFE/H2O 4:1 were additionally
Reference peptides (linear and RCM stapled peptides)
Figure S2: CD spectra of reference peptides P6, aAxWt and aStAx-3, c = 100 µM in H2O. […]

β-catenin [5] = molecular target: T2, β-catenin (Homo sapiens, UniProt P35222); test: direct fluorescence polarisation
T2 chain: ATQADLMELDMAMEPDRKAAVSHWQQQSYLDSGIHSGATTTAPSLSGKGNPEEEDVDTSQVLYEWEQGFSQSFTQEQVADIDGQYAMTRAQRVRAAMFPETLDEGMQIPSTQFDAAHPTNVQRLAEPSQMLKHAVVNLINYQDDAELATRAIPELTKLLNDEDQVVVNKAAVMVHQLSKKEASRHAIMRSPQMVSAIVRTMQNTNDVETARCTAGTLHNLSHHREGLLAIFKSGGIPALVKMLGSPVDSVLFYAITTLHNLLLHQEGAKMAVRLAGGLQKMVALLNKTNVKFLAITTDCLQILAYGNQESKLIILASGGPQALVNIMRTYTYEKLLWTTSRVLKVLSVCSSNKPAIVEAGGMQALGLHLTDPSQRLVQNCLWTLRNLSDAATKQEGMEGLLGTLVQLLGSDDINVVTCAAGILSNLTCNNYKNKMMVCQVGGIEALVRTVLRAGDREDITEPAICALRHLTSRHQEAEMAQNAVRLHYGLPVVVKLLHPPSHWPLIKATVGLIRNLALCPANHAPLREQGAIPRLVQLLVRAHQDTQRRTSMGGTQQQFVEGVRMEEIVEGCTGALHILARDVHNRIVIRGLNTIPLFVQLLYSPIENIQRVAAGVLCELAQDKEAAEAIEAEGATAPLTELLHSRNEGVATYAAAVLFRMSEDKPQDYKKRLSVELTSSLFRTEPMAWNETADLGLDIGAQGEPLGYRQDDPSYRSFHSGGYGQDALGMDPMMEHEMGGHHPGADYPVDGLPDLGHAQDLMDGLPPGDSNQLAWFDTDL

β-catenin [6] = molecular target: T2, β-catenin; test: competitive fluorescence polarisation

proteinase K, sequence (P06873 106-384, species assumed): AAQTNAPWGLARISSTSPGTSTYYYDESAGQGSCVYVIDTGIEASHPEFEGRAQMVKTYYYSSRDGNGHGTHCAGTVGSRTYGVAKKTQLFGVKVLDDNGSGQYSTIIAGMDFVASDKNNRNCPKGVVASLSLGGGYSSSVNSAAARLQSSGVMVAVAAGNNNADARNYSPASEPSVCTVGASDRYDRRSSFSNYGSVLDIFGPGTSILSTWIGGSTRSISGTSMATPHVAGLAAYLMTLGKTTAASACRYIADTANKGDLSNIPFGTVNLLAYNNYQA

Row | Molecule | θ222 | [θ]222 (deg cm2 dmol-1) [1] | Kd (β-catenin [2]) | MRE (deg cm2 dmol-1) [3] | Stability against proteinase K digestion (cleavage sites/fragments) (proteinase K) | α-Helix content calculated from CD spectra [4] | Kd (β-catenin [5]) | Kd (β-catenin [6])
1 | CC[C@H](C)[C@@H]1NC(=O)[C@@](C)(NC(=O)[C@H](CCC(=O)O)NC(=O)[C@@H]2CCCN2C(=O)[C@H](CC(N)=O)NC(=O)[C@H](CCC(=O)O)NC(C)=O)CCCC=CCCC[C@@](C)(C(=O)N[C@@H](Cc2c[nH]cn2)C(=O)N[C@H](C(=O)N[C@@H](CCC(N)=O)C(=O)N[C@@H](CCCNC(=N)N)C(=O)N[C@H](C(=O)N[C@@H](CCSC)C(N)=O)C(C)C)C(C)C)NC(=O)[C@H](CC(=O)O)NC(=O)[C@H](CC(C)C)NC1=O [aStAx-3, reference compound] (Ac-ENPE[S5]ILD[S5]HVQRVM-NH2; staple 5-9) | -16.2 mdeg | -162000 | 49 ± 26 nM | -10800 | – | – | – | –
2 | Ac-ENPEWILDKHVQRVM-NH2 [P6] | -5.94 mdeg | -59400 | 1240 ± 162 nM | -3960 | degraded in three fragments; also recorded: cleaved within a period of 120 min to give three fragments | 13% | – | –
3 | CC[C@H](C)[C@@H]1NC(=O)[C@@H](NC(=O)[C@H](CCC(=O)O)NC(=O)[C@@H]2CCCN2C(=O)[C@H](CC(N)=O)NC(=O)[C@H](CCC(=O)O)NC(C)=O)Cc2c[nH]c3c(cccc23)-c2ccc(cc2)CCC(=O)NCCCC[C@@H](C(=O)N[C@@H](Cc2c[nH]cn2)C(=O)N[C@H](C(=O)N[C@@H](CCC(N)=O)C(=O)N[C@@H](CCCNC(=N)N)C(=O)N[C@H](C(=O)N[C@@H](CCSC)C(N)=O)C(C)C)C(C)C)NC(=O)[C@H](CC(=O)O)NC(=O)[C@H](CC(C)C)NC1=O [P5] | -7.04 mdeg and -10 mdeg | -70400 and -100000 | – | -4690 and -6680 | two of three cleaving sites are blocked; also recorded: allows access to only one of the three cleavage sites; also recorded: higher stability | – | – | –
4 | B1 | – | – | – | – | – | – | 63 nM | –
5 | B2 | – | – | – | – | – | – | – | 1450 nM
